# From US9193719B2, “1,2,4-triazol-5-ones and analogs exhibiting anti-cancer and anti-proliferative activities” (Deciphera Pharmaceuticals, LLC, priority 2013, dated 2015)
# Columns and labels:
# [1] = molecular target: T1, unphosphorylated c-FMS kinase (uFMS, Seq. ID no. 1) (Homo sapiens, UniProt P07333); assay: uFMS kinase enzymatic assay (pyruvate kinase/lactate dehydrogenase coupled); assay type: biochemical; details: ATP 500 μM, rate 3 to 4 h
# T1 construct: purchased Millipore
# T1 sequence (P07333 538-972): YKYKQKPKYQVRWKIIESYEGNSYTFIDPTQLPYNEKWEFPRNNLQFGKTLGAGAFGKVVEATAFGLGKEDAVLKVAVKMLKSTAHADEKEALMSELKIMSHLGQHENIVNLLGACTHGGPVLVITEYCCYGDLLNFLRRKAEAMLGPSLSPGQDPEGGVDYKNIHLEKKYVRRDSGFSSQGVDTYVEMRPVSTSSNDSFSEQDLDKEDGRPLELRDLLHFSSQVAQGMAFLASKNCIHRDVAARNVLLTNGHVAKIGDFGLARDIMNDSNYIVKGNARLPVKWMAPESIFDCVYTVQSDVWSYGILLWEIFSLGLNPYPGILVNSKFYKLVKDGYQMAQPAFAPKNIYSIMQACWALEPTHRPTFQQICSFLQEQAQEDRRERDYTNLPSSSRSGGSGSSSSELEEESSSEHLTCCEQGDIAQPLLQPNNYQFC
# Experimental: uFMS Kinase (Seq. ID No. 1) Assay
# Activity of unphosphorylated c-FMS kinase (uFMS, Seq. ID no. 1) was determined by following the production of ADP from the FMS kinase reaction with ATP and poly E4Y as substrates through coupling with the pyruvate kinase/lactate dehydrogenase system (e.g., Schindler et al. Science (2000) 289: 1938-1942). In this assay, the oxidation of NADH (thus the decrease at A340 nm) was continuously monitored spectrophometrically. The reaction mixture (100 μL) contained FMS (purchased from Millipore) (10 nM), polyE4Y (1 mg/mL), MgCl2 (10 mM), pyruvate kinase (4 units), lactate dehydrogenase (0.7 units), phosphoenol pyruvate (1 mM), NADH (0.28 mM) and ATP (500 μM) in 90 mM Tris buffer containing 0.2% octyl-glucoside and 1% DMSO, pH 7.5. The inhibition reaction was started by mixing serial diluted test compound with the above reaction mixture. The absorption at 340 nm was monitored continuously for 4 hours at 30° C. on Synergy 2 plate reader. The reaction rate was calculated using the 3 to 4 h time frame. Percent inhibition was obtained by comparison of reaction rate with that of a control (i.e. in the absence of test compound). IC50 values were calculated from a series of percent inhibition values determined at a range of inhibitor concentrations using software routines as implemented in the GraphPad Prism software package.
# osteoclast precursors = assay: Osteoclast tartrate-resistant acid phosphatase assay; assay type: cell-based; details: RANKL and M-CSF, 7-14 days, tartrate-resistant acid phosphatase activity
# Experimental: Osteoclast Tartrate-Resistant Acid Phosphatase Assay
# A serial dilution of test compound was dispensed into a 384-well black clear bottom plate (Nalge Nunc International, Rochester, N.Y.). Compound was diluted by the addition of DMEM media supplemented with 10% characterized fetal bovine serum (Invitrogen, Carlsbad, Calif.). Diluted compound was transferred to a 384-well black clear bottom plate. Two-thousand five hundred osteoclast precursors (Lonza, Walkersville, Md.) were added per well in growth media containing Receptor Activator of Nuclear Factor Kappa-beta ligand (RANKL) and M-CSF (R&D Systems, Minneapolis, Minn.). Plates were incubated for 7-14 days at 37 degrees Celsius, 5% CO2, and 95% humidity to allow differentiation of osteoclast precursors. At the end of the incubation period, 10 μL of supernatant from each well was transferred to a clear 384-well plate. Tartrate-resistant acid phosphatase activity in the supernatant samples was determined using an acid phosphatase assay kit (Sigma, St. Louis, Mo.). Absorbance was measured at 550 nm using a plate reader. Data was analyzed using Prism software (Graphpad, San Diego, Calif.) to calculate IC50 values.
IC50 [1] [nM],IC50 (osteoclast precursors) [nM],SMILES
≤ 10,10 to 100,"Cc1nc(-n2nc(Cc3ccc(F)cc3)[nH]c2=O)ccc1Oc1ccnc(-c2cnn(C)c2)c1 [Example 1, 3-(4-fluorobenzyl)-1-(6-methyl-5-((2-(1-methyl-1H-pyrazol-4-yl)pyridin-4-yl)oxy)pyridin-2-yl)-1H-1,2,4-triazol-5(4H)-one]"
≤ 10,10 to 100,"Cc1nc(-n2nc(Cc3ccccc3)[nH]c2=O)ccc1Oc1ccnc(-c2cnn(C)c2)c1 [Example 2, 3-benzyl-1-(6-methyl-5-((2-(1-methyl-1H-pyrazol-4-yl)pyridin-4-yl)oxy)pyridin-2-yl)-1H-1,2,4-triazol-5(4H)-one]"
≤ 10,10 to 100,"Cn1cc(-c2cc(Oc3ccc(-n4nc(Cc5ccc(F)cc5)[nH]c4=O)nc3)ccn2)cn1 [Example 3, 3-(4-fluorobenzyl)-1-(5-((2-(1-methyl-1H-pyrazol-4-yl)pyridin-4-yl)oxy)pyridin-2-yl)-1H-1,2,4-triazol-5(4H)-one]"
≤ 10,10 to 100,"Cn1cc(-c2cc(Oc3ccc(-n4nc(C(C)(C)C)[nH]c4=O)nc3)ccn2)cn1 [Example 4, 3-(tert-butyl)-1-(5-((2-(1-methyl-1H-pyrazol-4-yl)pyridin-4-yl)oxy)pyridin-2-yl)-1H-1,2,4-triazol-5(4H)-one]"
10 to 100,10 to 100,"Cc1nc(-n2nc(C(C)C)[nH]c2=O)ccc1Oc1ccnc(-c2cnn(C)c2)c1 [Example 5, 3-isopropyl-1-(6-methyl-5-((2-(1-methyl-1H-pyrazol-4-yl)pyridin-4-yl)oxy)pyridin-2-yl)-1H-1,2,4-triazol-5(4H)-one]"
≤ 10,10 to 100,"Cc1nc(-n2nc(C3CCCCC3)[nH]c2=O)ccc1Oc1ccnc(-c2cnn(C)c2)c1 [Example 6, 3-cyclohexyl-1-(6-methyl-5-((2-(1-methyl-1H-pyrazol-4-yl)pyridin-4-yl)oxy)pyridin-2-yl)-1H-1,2,4-triazol-5(4H)-one]"
10 to 100,10 to 100,"Cc1cc(-c2cc(Oc3ccc(-n4nc(C(C)(C)C)[nH]c4=O)nc3C)ccn2)ccn1 [Example 9, 3-(tert-butyl)-1-(6-methyl-5-((2′-methyl-[2,4′-bipyridin]-4-yl)oxy)pyridin-2-yl)-1H-1,2,4-triazol-5(4H)-one]"
10 to 100,10 to 100,"Cc1ccc(-c2cc(Oc3ccc(-n4nc(C(C)(C)C)[nH]c4=O)nc3C)ccn2)cn1 [Example 10, 3-(tert-butyl)-1-(6-methyl-5-((6′-methyl-[2,3′-bipyridin]-4-yl)oxy)pyridin-2-yl)-1H-1,2,4-triazol-5(4H)-one]"
10 to 100,100 to 1000,"Cc1nc(-n2nc(C(C)(C)C)n(C)c2=O)ccc1Oc1ccnc(-c2cnn(C)c2)c1 [Example 13, 3-(tert-butyl)-4-methyl-1-(6-methyl-5-((2-(1-methyl-1H-pyrazol-4-yl)pyridin-4-yl)oxy)pyridin-2-yl)-1H-1,2,4-triazol-5(4H)-one]"
≤ 10,≤ 10,"Cc1nc(-n2nc(C(C)(C)C)[nH]c2=O)ccc1Oc1ccnc(-c2ccc(C3CCN(C)CC3)cc2)c1 [Example 14, 3-(tert-butyl)-1-(6-methyl-5-((2-(4-(1-methylpiperidin-4-yl)phenyl)pyridin-4-yl)oxy)pyridin-2-yl)-1H-1,2,4-triazol-5(4H)-one]"
10 to 100,10 to 100,"COC(C)(C)c1nn(-c2ccc(Oc3ccnc(-c4cnn(C)c4)c3)c(C)n2)c(=O)[nH]1 [Example 16, 3-(2-methoxypropan-2-yl)-1-(6-methyl-5-((2-(1-methyl-1H-pyrazol-4-yl)pyridin-4-yl)oxy)pyridin-2-yl)-1H-1,2,4-triazol-5(4H)-one]"
≤ 10,100 to 1000,"Cc1nc(-n2nc(C3CCOCC3)[nH]c2=O)ccc1Oc1ccnc(-c2cnn(C)c2)c1 [Example 20, 1-(6-methyl-5-((2-(1-methyl-1H-pyrazol-4-yl)pyridin-4-yl)oxy)pyridin-2-yl)-3-(tetrahydro-2H-pyran-4-yl)-1H-1,2,4-triazol-5(4H)-one]"
≤ 10,10 to 100,"Cc1nc(-n2nc(CC(C)C)[nH]c2=O)ccc1Oc1ccnc(-c2cnn(C)c2)c1 [Example 22, 3-isobutyl-1-(6-methyl-5-((2-(1-methyl-1H-pyrazol-4-yl)pyridin-4-yl)oxy)pyridin-2-yl)-1H-1,2,4-triazol-5(4H)-one]"
≤ 10,10 to 100,"CCC(C)(C)c1nn(-c2ccc(Oc3ccnc(-c4cnn(C)c4)c3)c(C)n2)c(=O)[nH]1 [Example 25, 1-(6-methyl-5-((2-(1-methyl-1H-pyrazol-4-yl)pyridin-4-yl)oxy)pyridin-2-yl)-3-(tert-pentyl)-1H-1,2,4-triazol-5(4H)-one]"
≤ 10,10 to 100,"Cc1nc(-n2nc(C3(C)CC3)[nH]c2=O)ccc1Oc1ccnc(-c2cnn(C)c2)c1 [Example 27, 1-(6-methyl-5-((2-(1-methyl-1H-pyrazol-4-yl)pyridin-4-yl)oxy)pyridin-2-yl)-3-(1-methylcyclopropyl)-1H-1,2,4-triazol-5(4H)-one]"
10 to 100,10 to 100,"Cc1nc(-n2nc(C(C)(C)C)[nH]c2=O)ccc1Oc1ccnc(NC(=O)N(C)C)c1 [Example 30, 3-(4-((6-(3-(tert-butyl)-5-oxo-4,5-dihydro-1H-1,2,4-triazol-1-yl)-2-methylpyridin-3-yl)oxy)pyridin-2-yl)-1,1-dimethylurea]"
≤ 10,10 to 100,"Cc1cc(-n2nc(C(C)(C)C)[nH]c2=O)ncc1Oc1ccnc(-c2cnn(C)c2)c1 [Example 31, 3-(tert-butyl)-1-(4-methyl-5-((2-(1-methyl-1H-pyrazol-4-yl)pyridin-4-yl)oxy)pyridin-2-yl)-1H-1,2,4-triazol-5(4H)-one]"
10 to 100,100 to 1000,"Cc1cc(-n2nc(C(C)(C)C)[nH]c2=O)nc(C)c1Oc1ccnc(-c2cnn(C)c2)c1 [Example 33, 3-(tert-butyl)-1-(4,6-dimethyl-5-((2-(1-methyl-1H-pyrazol-4-yl)pyridin-4-yl)oxy)pyridin-2-yl)-1H-1,2,4-triazol-5(4H)-one]"
≤ 10,10 to 100,"Cc1nc(-n2nc(CC(C)(C)C)[nH]c2=O)ccc1Oc1ccnc(-c2cnn(C)c2)c1 [Example 36, 1-(6-methyl-5-((2-(1-methyl-1H-pyrazol-4-yl)pyridin-4-yl)oxy)pyridin-2-yl)-3-neopentyl-1H-1,2,4-triazol-5(4H)-one]"
≤ 10,≤ 10,"Cc1nc(-n2nc(C3CCC3)[nH]c2=O)ccc1Oc1ccnc(-c2cnn(C)c2)c1 [Example 37, 3-cyclobutyl-1-(6-methyl-5-((2-(1-methyl-1H-pyrazol-4-yl)pyridin-4-yl)oxy)pyridin-2-yl)-1H-1,2,4-triazol-5(4H)-one]"
≤ 10,10 to 100,"CCn1cc(-c2cc(Oc3ccc(-n4nc(C(C)(C)C)[nH]c4=O)nc3C)ccn2)cn1 [Example 38, 3-(tert-butyl)-1-(5-((2-(1-ethyl-1H-pyrazol-4-yl)pyridin-4-yl)oxy)-6-methylpyridin-2-yl)-1H-1,2,4-triazol-5(4H)-one]"
10 to 100,10 to 100,"Cc1nc(-n2nc(C(C)(C)C)[nH]c2=O)ccc1Oc1ccnc(-c2cnco2)c1 [Example 39, 3-(tert-butyl)-1-(6-methyl-5-((2-(oxazol-5-yl)pyridin-4-yl)oxy)pyridin-2-yl)-1H-1,2,4-triazol-5(4H)-one]"
≤ 10,10 to 100,"Cc1nc(-n2nc(C3(C(F)(F)F)CCC3)[nH]c2=O)ccc1Oc1ccnc(-c2cnn(C)c2)c1 [Example 43, 1-(6-methyl-5-((2-(1-methyl-1H-pyrazol-4-yl)pyridin-4-yl)oxy)pyridin-2-yl)-3-(1-(trifluoromethyl)cyclobutyl)-1H-1,2,4-triazol-5(4H)-one]"
